According to US20120165403A1, “METHODS OF INHIBITING THE ACTIVITY OF HSP90 AND/OR ARYL HYDROCARBON RECEPTOR” (UNIVERSITY OF ROCHESTER, priority 2004, published 2012):

Tests used:
[1] = tested on: mouse AhR; test: Competitive binding by velocity sedimentation on sucrose density gradients; conditions: Hepa cytosol, 2 h, room temperature
Procedure: Mouse hepatoma cells, Hepa1c1c7 (Hepa), and BP^rCl cells were maintained in modified Eagle's medium (Sigma) supplemented with 10% heat-inactivated fetal bovine serum, sodium pyruvate, L-glutamine, sodium bicarbonate, and Gentamicin (MEM+), at 37° C. in a humid atmosphere with 5% CO2. BP^rCl cells are a derivative of Hepa1c1c7 cells that lack ARNT protein expression and function (Probst et al., Mol. Pharmacol. 44:511-518 (1993), which is hereby incorporated by reference in its entirety). Upon reaching 90% confluency, cells were harvested and homogenized in HEDG buffer (25 mM HEPES, 1.5 mM Na2EDTA, 1 mM dithiothreitol, 10% (v/v) glycerol, pH 7.6) containing protease inhibitors (Roche Applied Science complete mini cocktail tablet, Indianapolis, Ind.). Both Hepa and BP^rC1 cytosols were prepared by centrifugation of the homogenate at 100,000 g for 45 min.
(§1) Competitive binding of EGCG was analyzed by velocity sedimentation on sucrose gradients in a vertical tube rotor (Tsui et al., Can. J. Physiol. Pharmacol 59:927-931 (1981); Jensen et al., Toxicol. Sci. 64:41-56 (2001), which are hereby incorporated by reference in their entirety). Hepa cytosol (100 μl of 2.5 mg/ml) or BP^rCl cytosol was incubated for two hours at room temperature with either 3 nM ^3H-TCDD, 0.5 nM ^3H-TCDD, or 5 nM ^3H-BNF, in the presence of DMSO, 150-fold excess TCDF, 1 μM 3M4NF, or EGCG. Cytosols were washed with charcoal-dextran (1 mg charcoal/mg protein) in HEDG, and applied to a 10-30% (w/v) sucrose gradient in Beckman Quick-Seal centrifuge tubes (Beckman, Palo Alto, Calif.). [Methyl-^14C]-BSA was used as an internal sedimentation marker. The gradients were centrifuged for 2 h at 372,000×g in a Beckman VTI-80 rotor. Fractions were collected from the top at a rate of 1 ml/min, 0.2 ml/fraction. For competitive binding assays, fractions were assayed for radioactivity with ScintiVerse (Fisher Scientific, Fair Lawn, N.J.). […] For AhR and hsp90 density analysis, protein contained within an aliquot (200 of each fraction was separated by SDS-PAGE (7.5% acrylamide resolving gel) and transferred to PVDF membranes. Membranes were probed with antibodies recognizing AhR (Biomol) or hsp90 (Stressgen, Victoria, BC Canada). A crude estimate of the sedimentation coefficient for the EGCG shifted AhR complex was calculated by the method of Martin and Ames (Martin et al., J. Biol. Chem. 236:1372-1379 (1961), which is hereby incorporated by reference in its entirety) relative to the ^14C-BSA (4.4S) standard.

[2] = tested on: AhR; test: Immunocytochemistry of AhR subcellular localization in Hepa cells; assay type: cell-based, mouse; conditions: 1 h, EGCG 200 μM or TCDD 150 pM
Procedure: Hepa cells were plated onto four-well chamber slides (Becton Dickinson, Bedford, Mass.) at a density of 2.0×10^4 and incubated overnight. Cells were treated with either vehicle (DMSO), TCDD (150 pM), EGCG alone (200 μM), or EGCG in the presence of TCDD (150 pM) for 1 h. Cells were fixed with 3.7% formalin at room temperature for 10 minutes, followed by a four minute incubation in anhydrous methanol at 4° C. All antibodies were filtered through a 0.45 micron filter before staining Cells were blocked for one hour in phosphate buffered saline containing 4% BSA, incubated with anti-AhR at a 1:2000 dilution for two hours at room temperature, followed by a one hour incubation with 1:1000 anti-rabbit Alexa-Fluor conjugated secondary antibody (Molecular Probes, Eugene Oreg.). Nuclei were stained with DAPI (0.5 μg/ml) (Molecular Probes) for three minutes at room temperature. Slides were mounted with 50% glycerol and coverslipped. AhR staining and nuclear staining were visualized using a Nikon Eclipse TS110 fluorescent microscope (40× magnification). Fluorescent images were captured using SPOT advanced software.

[3] = tested on: AhR; test: AhR protein levels by western blotting in Hepa cells; assay type: cell-based, mouse; conditions: over 12 hours, EGCG 200 μM or TCDD 150 pM
Procedure: Hepa cells were plated onto 6-well plates at a density of 5×10^5 cells/well and incubated overnight at 37° C. […] Cells were lysed (0.2% Triton, 5 mM EDTA in PBS) and total protein quantified using the Coomassie Plus Protein Assay Reagent (Pierce, Rockford, Ill.). Protein (30 μg) was separated by SDS-PAGE (7.5% acrylamide resolving gel) and transferred to PVDF membrane (Millipore, Bedford, Mass.). Membranes were probed with antibodies recognizing CYP1A1 (Xenotech, Lenexa, Kans.), AhR (Biomol, Plymouth Meeting, Pa.) and actin (Sigma). The secondary IgG antibodies were coupled to horseradish peroxidase (Jackson Immuno Research, West Grove, Pa.). Both primary and secondary antibodies were used at a dilution of 1:5000 in TBST (50 mM Tris, 300 mM NaCl, 0.5% Tween 20, pH 7.5) containing 5% milk. Proteins were visualized by chemiluminescence (KPL, Gaithersburg, Md.).

[4] = tested on: hsp90; test: Sucrose density gradient sedimentation of hsp90 in Hepa cytosol; assay type: biochemical, mouse; conditions: 2 h, 200 μM EGCG or 10 nM TCDD
Procedure: as §1, with “Cytosols were washed with charcoal-dextran (1 mg charcoal/mg protein) in HEDG, and applied to a 10-30% (w/v) sucrose gradient in Beckman Quick-Seal centrifuge tubes (Beckman, Palo Alto, Calif.). [Methyl-^14C]-BSA was used as an internal sedimentation marker. The gradients were centrifuged for 2 h at 372,000×g in a Beckman VTI-80 rotor. Fractions were collected from the top at a rate of 1 ml/min, 0.2 ml/fraction.” left out

In the case of `COc1cc(-c2cc(=O)c3ccccc3o2)ccc1[N+](=O)[O-]` [3M4NF, 3′-methoxy-4′ nitroflavone, reference compound], the “competition with 3H-TCDD for specific binding to the AhR (9S peak)” value ([1]; 3 nM 3H-TCDD) is reported as “inhibited the formation of this ^3H-TCDD peak”.

`Clc1cc2c(cc1Cl)Oc1cc(Cl)c(Cl)cc1O2` [TCDD, 2,3,7,8-tetrachlorodibenzo-p-dioxin, reference compound] was tested, and the “subcellular localization of the AhR, treatment alone” value [2] was “redistribution of the AhR from the cytosol to the nucleus”, the “AhR protein levels, treatment alone” value [3] was “decline rapidly” and the “effect on the sedimentation pattern of hsp90” value [4] was “did not appear to influence this sedimentation pattern”.

In the case of `O=c1cc(-c2cccc([N+](=O)[O-])c2)oc2ccccc12` [3′-nitroflavone, reference compound], the “competition with 3H-BNF for binding to the AhR” value ([1]; 5 nM 3H-BNF) is reported as “very efficiently competed with BNF binding”.
